# Assay results reported in patent publication US8946441B2, “Polymorphs of an active pharmaceutical ingredient” (Sandoz AG, priority 2010, dated 2015).
# Assays:
# [1] = form A, prior art references (EP1020454, US 7,361,676); cited from earlier work
# [2] = Moisture sorption/desorption isotherm (SPS-11 moisture sorption analyzer); type: physicochemical; details: for hygroscopicity: 0% to 90% RH, 25°C
# Protocol: The moisture sorption/desorption isotherms were recorded with a SPS-11 moisture sorption analyzer (MD Messtechnik, Ulm, D). […] The equilibrium condition for each step was set to a mass constancy of ±0.01% over 30 min. The temperature was 25±0.1° C.
# [3] = Polymorphic stability on storage; type: physicochemical
# [4] = Water content according to Karl Fischer; type: physicochemical; details: stored at 20° C., ambient pressure, 0% up to 90% relative humidity
# [5] = Solubility determination of form I and form A in methanol/water (1:1 v/v), UV-spectrophotometry at 314 nm; type: physicochemical; details: MeOH/H2O 50%:50% v/v, 5 to 180 min, FIG. 8
# Protocol: 25 mg of Febuxostat form I or form A, obtained according to the procedure described in EP1020454 were stirred in a mixture of 20 ml of methanol and water (1:1 v/v). 1 ml of the suspension was withdrawn from each suspension within a time range of 5 to 180 min with the aid of a volumetric pipette and filtered. The filtrate was diluted to 25 ml with a 50% (v/v) methanol/water mixture and the concentration was determined by UV-spectrophotometry at 314 nm (apparatus: Shimadzu UV 1800).
# A calibration curve was determined based on a series of known concentrations in the same solvent system.
# [6] = Kinetics of conversion to hemihydrate G in a mix of methanol and water; type: physicochemical
# Source text: The solvent system methanol/water represents a model for the dissolution of solid states of Febuxostat, with the hemihydrate G representing a thermodynamic very stable form with low solubility in aqueous systems.
structure (smiles),measurement,setting,value
"Cc1nc(-c2ccc(OCC(C)C)c(C#N)c2)sc1C(=O)O [form A, 2-(3-cyano-4-isobutyloxy-phenyl)-4-methyl-5-thiazolecarboxylic acid]",solubility,[1],0.22 mg/mL
"Cc1nc(-c2ccc(OCC(C)C)c(C#N)c2)sc1C(=O)O [Form II, 2-(3-cyano-4-isobutyloxy-phenyl)-4-methyl-5-thiazolecarboxylic acid]",hygroscopicity,[2],non hygroscopic
same,water uptake,[2]; up to a relative humidity of 90%,no significant water uptake
same,polymorphic stability on storage,[3]; ambient temperature for 6 weeks,does not convert to another polymorphic form
"Cc1nc(-c2ccc(OCC(C)C)c(C#N)c2)sc1C(=O)O [tert.-amylalcohol solvate, 2-(3-cyano-4-isobutyloxy-phenyl)-4-methyl-5-thiazolecarboxylic acid]",stability on storage,[3]; ambient conditions in open atmosphere for 5 weeks,stable
"Cc1nc(-c2ccc(OCC(C)C)c(C#N)c2)sc1C(=O)O [form I, 2-(3-cyano-4-isobutyloxy-phenyl)-4-methyl-5-thiazolecarboxylic acid]",water content (KF),[4],below 0.1%
same,hygroscopicity,[2]; listed as polymorph I,nonhygroscopic
same,polymorphic stability on storage,"[3]; stress conditions, 40° C. for 3 months",does not change its polymorphic state properties
same,increase in solubility compared to form A,[5],approximately 20%
same,kinetics of conversion to hemihydrate G compared to anhydrate A,[6],slower
